Structures can show the parent of a compound that is named as a salt.

Chain of Bek (P21802 431-767 limits assumed): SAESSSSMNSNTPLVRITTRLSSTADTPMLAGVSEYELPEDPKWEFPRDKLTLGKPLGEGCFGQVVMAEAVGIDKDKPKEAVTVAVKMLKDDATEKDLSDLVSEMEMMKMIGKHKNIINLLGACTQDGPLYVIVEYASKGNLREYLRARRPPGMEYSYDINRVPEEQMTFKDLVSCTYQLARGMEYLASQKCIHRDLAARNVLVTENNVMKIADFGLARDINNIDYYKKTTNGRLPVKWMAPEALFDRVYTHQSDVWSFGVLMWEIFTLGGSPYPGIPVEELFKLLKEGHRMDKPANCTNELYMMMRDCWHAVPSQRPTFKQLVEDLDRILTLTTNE

This assay has as its target Bek (Homo sapiens, UniProt P21802). Kind of assay: Inhibitory activity against Bek-autophosphorylation using ELISA method in OCUM-2MD3 cells. It counts as cell-based. Particulars: 1 hr with compound, read-out: IC50 (concentration necessary for inhibiting 50% of Bek-phosphorylation). The method, then:
Human scirrhus stomach cancer cells OCUM-2MD3 (kindly provided by Dr. Kosei Hirakawa, Osaka City University) were cultured in an RPMI medium containing 10% fetal calf serum (purchased from ICN) within a 5% carbon dioxide incubator until 50 to 90% confluent. The harvested cells were seeded onto 96-well flat-bottom plate in RPMI containing 0.1% fetal calf serum at 3.5×10^4 cells per well, followed by cultivation at 37° C. overnight. A solution of the test compound in dimethyl sulfoxide was added to each well, and the cultivation was continued at 37° C. for additional one hr. The medium was removed, and 50 μl of lysis buffer (20 mM HEPES (pH 7.4), 150 mM NaCl, 0.2% Triton X-100, 10% glycerol, 5 mM sodium orthovanadylate, 5 mM disodium ethylenediaminetetraacetate, and 2 mM Na4P2O7) was then added thereto. The mixture was shaken at 4° C. for 2 hr to prepare cell extracts.
Separately, phosphate buffered saline (50 μl, pH 7.4) containing 5 μg/ml of anti-phospho-tyrosine antibody (PY20; purchased from Transduction Laboratories) was added to a microplate for ELISA (Maxisorp; purchased from NUNC), followed by standing at 4° C. overnight to form a solid phase on the wells. After washing of the plate, 300 μl of a blocking solution was added, followed by standing at room temperature for 2 hr to perform blocking. After washing, the whole quantity of the cell extracts was transferred to the wells, and the plate was then allowed to stand at 4° C. overnight. After washing, an anti-Bek antibody (Bek (C-17), purchased from Santa Cruz Biotechnology) or Anti-Human K-sam Rabbit IgG Affinity Purity (purchased from IBL Co., Ltd.) was allowed to react at room temperature for one hr, and, after washing, a peroxidase-labeled anti-rabbit Ig antibody (purchased from Amersham) was allowed to react at room temperature for one hr. After washing, a chromophoric substrate for peroxidase (purchased from Sumitomo Bakelite Co., Ltd.) was added thereto to initiate a reaction. After a suitable level of color development, a reaction termination solution was added to stop the reaction, and the absorbance at 450 nm was measured with a microplate reader. The Bek-phosphorylation activity for each well was determined by presuming the absorbance without the addition of the medicament to be 100% Bek-phosphorylation activity and the absorbance with the addition of a large excess of a positive control (N-{4-[(6,7-dimethoxy-4-quinolyl)oxy]phenyl}-N′-(3,3-dimethylbutyl)urea, 1000 nM) to be 0% Bek-phosphorylation activity. The concentration of the test compound was varied on several levels, the Bek-phosphorylation inhibitory activity was determined for each case, and the concentration of the test compound necessary for inhibiting 50% of Bek-phosphorylation (IC50) was calculated.
For orientation: In an ELISA, binding on a coated surface is turned into a signal by an enzyme label.
Take `COc1cc2nccc(Oc3ccc(Nc4ccc(C(C)(C)C)cc4)cc3)c2cc1OCCN1CCOCC1` [Compound 212, (4-Tert-butyl-phenyl)-{4-[7-methoxy-6-(2-morpholin-4-yl-ethoxy)-quinolin-4-yloxy]-phenyl}-amine]: the IC50 is 137 nM.
In the case of `COc1cc2c(Oc3ccc(Nc4ccc(C(C)(C)C)cc4)cc3)ccnc2cc1OCC(O)CN1CCC(N2CCCC2)CC1` (stereo not drawn) [Compound 259, 1-{4-[4-(4-Tert-butyl-phenylamino)-phenoxy]-6-methoxy-quinolin-7-yloxy}-3-(4-pyrrolidin-1-yl-piperidin-1-yl)-propan-2-ol], the IC50 turned out to be 46.6 nM.
In the case of `COc1cc2c(Oc3ccc(Nc4ccc(C(C)(C)C)cc4)cc3)ccnc2cc1OCCCN1CCC(N2CCCCC2)CC1` [Compound 236, {4-[7-(3-[1,4′]Bipiperidineyl-1 ′-yl-propoxy)-6-methoxy-quinolin-4-yloxy]-phenyl}-(4-tert-butyl-phenyl)-amine] it was 269 nM; in that of `COc1cc2nccc(Oc3ccc(NC(=O)NCCC(C)(C)C)c(Cl)c3)c2cc1OC` [Compound 103, 1-[2-Chloro-4-(6,7-dimethoxyquinolin-4-yloxy)-phenyl]-3-(3,3-dimethyl-butyl)-urea], 29.8 nM.
Take `CCCCc1ccc(Nc2ccc(Oc3ccnc4cc(OC)c(OC)cc34)cc2)cc1` [Compound 8, (4-Butylphenyl)-[4-(6,7-dimethoxyquinolin-4-yloxy)phenyl]amine]: the IC50 came to 1500 nM.
In the case of `COc1cc2c(Oc3ccc(NC(=O)NCCC(C)(C)C)cc3F)ccnc2cc1OCCCN1CCC(O)CC1` [Compound 286, 1-(3,3-Dimethyl-butyl)-3-(3-fluoro-4-{7-[3-(4-hydroxy-piperidin-1-yl)-propoxy]-6-methoxy-quinolin-4-yloxy}-phenyl)-urea] it was 17.2 nM; in that of `COc1cc2nccc(Oc3ccc(Nc4ccc(C(C)(C)C)cc4)cc3)c2cc1OCC(O)CN1CCOCC1` (stereo not drawn) [Compound 213, 1-{4-[4-(4-Tert-butyl-phenylamino)-phenoxy]-7-methoxy-quinolin-6-yloxy}-3-morpholin-4-yl-propan-2-ol], 126 nM.
For the compound `COc1cc2nccc(Oc3ccc(NC(=O)NC(C)(C)CC(C)(C)C)c(Cl)c3)c2cc1OC` [Compound 144, 1-[2-Chloro-4-(6,7-dimethoxy-quinolin-4-yloxy)-phenyl]-3-(1,1,3,3-tetramethyl-butyl)-urea], the IC50 is 202 nM.
To `COc1cc2c(Oc3ccc(NC(=O)NC4CCCC(C)(C)C4)c(F)c3)ccnc2cc1OCCN1CCOCC1` (stereo not drawn) [Compound 133, 1-(3,3-Dimethyl-cyclohexyl)-3-{2-fluoro-4-[6-methoxy-7-(2-morpholin-4-yl-ethoxy)-quinolin-4-yloxy]-phenyl}-urea] belongs 9.2 nM; to `COc1cc2nccc(Oc3ccc(NC(=O)NCCC(C)(C)C)cc3)c2cc1OCC(O)CN1CCOCC1` (stereo not drawn) [Compound 225, 1-(3,3-Dimethyl-butyl)-3-{4-[6-(2-hydroxy-3-morpholin-4-yl-propoxy)-7-methoxy-quinolin-4-yloxy]-phenyl}-urea], 19.9 nM.
To `C=C[C@H]1CN2CCC1C[C@@H]2COc1cc2nccc(Oc3ccc(Nc4ccc(C(C)(C)C)cc4)cc3)c2cc1OC` (stereo in doubt) [Compound 57, (4-Tert-butylphenyl)-{4-[6-methoxy-7-(5-vinyl-1-azabicyclo-[2.2.2]oct-2-ylmethoxy)quinolin-4-yloxy]phenyl}amine] belongs 3830 nM.
With `COc1cc2c(Oc3ccc(Nc4ccc(C(C)(C)C)cc4)cc3)ccnc2cc1OCC(O)CN1CCN(C)CC1` (stereo not drawn) [Compound 64, 1-{4-[4-(4-Tert-butylphenylamino)phenoxy]-6-methoxyquinolin-7-yloxy}-3-(4-methylpiperazin-1-yl)propan-2-ol], the IC50 worked out at 178 nM.
As for `COc1cc2c(Oc3ccc(NC(=O)NCCC(C)(C)C)cc3Cl)ccnc2cc1OCCN1CC(C)OC(C)C1` (stereo not drawn) [Compound 127, 1-(3-Chloro-4-{7-[2-(2,6-dimethyl-morpholin-4-yl)-ethoxy]-6-methoxy-quinolin-4-yloxy}-phenyl)-3-(3,3-dimethyl-butyl)-urea], the IC50 is 9.4 nM.
In the case of `COc1cc2c(Oc3ccc(NC(=O)NCCC(C)(C)C)c(Cl)c3)ccnc2cc1OCCCN1CCC[C@H]1CO` [Compound 208, 1-(2-Chloro-4-{7-[3-(2-hydroxymethyl-pyrrolidin-1-yl)-propoxy]-6-methoxy-quinolin-4-yloxy}-phenyl)-3-(3,3-dimethyl-butyl)-urea] it was 27 nM.
`COc1cc2c(Oc3ccc(NC(=O)NCCC(C)(C)C)c(Cl)c3)ccnc2cc1OCCCCN1C(=O)c2ccccc2C1=O` [Compound 164, 1-(2-Chloro-4-{7-[4-(1,3-dioxo-1,3-dihydro-isoindol-2-yl)-butoxy]-6-methoxy-quinolin-4-yloxy}-phenyl)-3-(3,3-dimethyl-butyl)-urea]: the IC50 was 260 nM.
In the case of `COc1cc2nccc(Oc3ccc(Nc4ccc(C(C)(C)C)cc4)cc3)c2cc1O` [Compound 214, 4-[4-(4-Tert-butyl-phenylamino)-phenoxy]-7-methoxy-quinolin-6-ol] it was 26.1 nM.
To `COc1cc2c(Oc3ccc(NC(=O)NCCC(C)(C)C)cc3F)ccnc2cc1OCCCN1CCC(CO)CC1` [Compound 285, 1-(3,3-Dimethyl-butyl)-3-(3-fluoro-4-{7-[3-(4-hydroxymethyl-piperidin-1-yl)-propoxy]-6-methoxy-quinolin-4-yloxy}-phenyl)-urea] belongs 22.8 nM; to `COc1cc2c(Oc3ccc(NC(=O)NCCC(C)(C)C)c(Cl)c3)ccnc2cc1OCC(O)CN1CCCN(C)CC1` (stereo not drawn) [Compound 196, 1-(2-Chloro-4-{7-[2-hydroxy-3-(4-methyl-[1,4]diazepan-1-yl)-propoxy]-6-methoxy-quinolin-4-yloxy}-phenyl)-3-(3,3-dimethyl-butyl)-urea], 17.3 nM; to `COc1cc2c(Oc3ccc(NC(=O)NCCC(C)(C)C)cc3)ccnc2cc1OCCCCBr` [Compound 148, 1-{4-[7-(4-Bromo-butoxy)-6-methoxy-quinolin-4-yloxy]-phenyl}-3-(3,3-dimethyl-butyl)-urea], 1670 nM.
To `COc1cc2nccc(Oc3ccc(Nc4ccc(C(C)(C)C)cc4)c(Cl)c3)c2cc1OC` [Compound 11, (4-Tert-butylphenyl)-[2-chloro-4-(6,7-dimethoxyquinolin-4-yloxy)phenyl]amine] belongs 320 nM; to `COc1cc2c(Oc3ccc(NC(=O)NCCC(C)(C)C)cc3)ccnc2cc1OCCCN1CCCCC1` [Compound 154, 1-(3,3-Dimethyl-butyl)-3-{4-[6-methoxy-7-(3-piperidin-1-yl-propoxy)-quinolin-4-yloxy]-phenyl}-urea hydrochloride], 24.4 nM; to `COc1cc2nccc(Oc3ccc(NC(=O)NCCC(C)(C)C)c(F)c3)c2cc1OC` [Compound 111, 1-[4-(6,7-Dimethoxy-quinolin-4-yloxy)-2-fluoro-phenyl]-3-(3,3-dimethyl-butyl)-urea], less than 10 nM.
With `COc1cc2c(Oc3ccc(NC(=O)NCCC(C)(C)C)c(Cl)c3)ccnc2cc1OCCN1CCC(O)CC1` [Compound 274, 1-(2-Chloro-4-{7-[2-(4-hydroxy-piperidin-1-yl)-ethoxy]-6-methoxy-quinolin-4-yloxy}-phenyl)-3-(3,3-dimethyl-butyl)-urea], the IC50 is 27.8 nM.
In the case of `COc1cc2c(Oc3ccc(Nc4ccc(C(C)(C)C)cc4)cc3)ccnc2cc1OC[C@H](O)CN1CCOCC1` [Compound 70, (R)-1-{4-[4-(4-Tert-butylphenylamino)phenoxy]-6-methoxyquinolin-7-yloxy}-3-morpholin-4-ylpropan-2-ol] it was 68.5 nM; in that of `COc1cc2c(Oc3ccc(Nc4ccc(C(C)(C)C)cc4)cc3F)ccnc2cc1OCCCN1CCC(O)CC1` [Compound 273, 1-(3-{4-[4-(4-Tert-butyl-phenylamino)-2-fluoro-phenoxy]-6-methoxy-quinolin-7-yloxy}-propyl)-piperidin-4-ol], 161 nM.
Take `COc1cc2c(Oc3ccc(Nc4ccc(C(C)(C)C)cc4)cc3Cl)ccnc2cc1OCCN1CCC(O)CC1` [Compound 307, 1-(2-{4-[4-(4-Tert-butyl-phenylamino)-2-chloro-phenoxy]-6-methoxy-quinolin-7-yloxy}-ethyl)-piperidin-4-ol]: the IC50 worked out at 379 nM.
Turning to `CCCN(CCO)CCOc1cc2nccc(Oc3ccc(NC(=O)NCCC(C)(C)C)cc3)c2cc1OC` [Compound 369, 1-(3,3-Dimethyl-butyl)-3-[4-(7-{2-[(2-hydroxy-ethyl)-propyl-amino]-ethoxy}-6-methoxy-quinolin-4-yloxy)-phenyl]-urea], the IC50 was determined as 42.3 nM.

The values are drawn from patent US7495104B2, “Quinoline or quinazoline derivatives inhibiting auto-phosphorylation of fibroblast growth factor receptors” (Kirin Beer Kabushiki Kaisha, priority 2001, dated 2009).
